Toxic doses and inconclusive results are not listed. No stated cut-off is given here; in the data, active means T/C of 150% or more; inactive means T/C below 125%.
Tested on: L1210 leukemia ip in BDF1 mice, survival T/C
Test: NCI In Vivo Anticancer Drug Screen. Data for tumor model L1210 Leukemia (intraperitoneal) in B6D2F1 (BDF1) mice
Conditions: endpoint: mean survival time, higher = longer survival
Procedure, shortened: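 Each compound was tested against a transplantable tumor grown in mice. The endpoint was survival, with treated animals benchmarked against vehicle controls as a simple ratio.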

[1] = dose: 100.0 mg/kg/injection, schedule: Q01DX009 (ip), vehicle: Klucel (hydroxypropylcellulose) (HPC)
[2] = dose: 100.0 mg/kg/injection, schedule: Q04DX002 (ip), vehicle: Klucel (hydroxypropylcellulose) (HPC)
[3] = dose: 200.0 mg/kg/injection, schedule: Q01DX009 (ip), vehicle: Klucel (hydroxypropylcellulose) (HPC)
[4] = dose: 200.0 mg/kg/injection, schedule: Q04DX002 (ip), vehicle: Klucel (hydroxypropylcellulose) (HPC)
[5] = dose: 400.0 mg/kg/injection, schedule: Q04DX002 (ip), vehicle: Klucel (hydroxypropylcellulose) (HPC)

Measured: T/C

N#Cc1ccc(O)cc1
inactive: dose: 100.0 mg/kg/injection, schedule: Q01DX005 (ip), vehicle: Klucel (hydroxypropylcellulose) (HPC) 105 % of control | [1] 99 % of control | [2] 106 % of control | dose: 200.0 mg/kg/injection, schedule: Q01DX005 (ip), vehicle: Klucel (hydroxypropylcellulose) (HPC) 105 % of control | [3] 96 % of control | [4] 117 % of control | dose: 400.0 mg/kg/injection, schedule: Q01DX005 (ip), vehicle: Klucel (hydroxypropylcellulose) (HPC) 108 % of control | [5] 87 % of control

COc1ccc(OC)c(NC(=O)OCC(Cl)(Cl)Cl)c1
inactive: dose: 100.0 mg/kg/injection, schedule: Q01DX009 (ip), vehicle: saline 109 % of control | dose: 200.0 mg/kg/injection, schedule: Q01DX009 (ip), vehicle: saline 104 % of control | dose: 400.0 mg/kg/injection, schedule: Q01DX009 (ip), vehicle: saline 98 % of control

Cc1ccc(Cl)cc1NC(=O)c1ccccc1F
inactive: [2] 93 % of control | [4] 97 % of control | [5] 101 % of control

Cc1ccc(C(=O)C[S+](C)C)c(C)c1
inactive: dose: 25.0 mg/kg/injection, schedule: Q01DX009 (ip), vehicle: saline 98 % of control | dose: 50.0 mg/kg/injection, schedule: Q01DX009 (ip), vehicle: saline 95 % of control | dose: 100.0 mg/kg/injection, schedule: Q04DX003 (ip), vehicle: saline with Tween-80 102 % of control

O=C(CSCCCCl)OCCSCCCCl
inactive: dose: 17.5 mg/kg/injection, schedule: Q01DX Z (ip), vehicle: saline 93 % of control | dose: 70.0 mg/kg/injection, schedule: Q01DX Z (ip), vehicle: saline 104 % of control

Nc1ncnc2c1ncn2C1OC(COP(=O)(O)OP(=O)(O)OCC2OC([n+]3cccc(C=O)c3)C(O)C2O)C(O)C1O (centres undefined)
inactive: dose: 80.0 mg/kg/injection, schedule: Q01DX Z (ip), vehicle: saline 95 % of control | dose: 120.0 mg/kg/injection, schedule: Q01DX Z (ip), vehicle: saline 90 % of control | dose: 180.0 mg/kg/injection, schedule: Q01DX Z (ip), vehicle: saline 97 % of control | dose: 270.0 mg/kg/injection, schedule: Q01DX Z (ip), vehicle: saline 101 % of control

CC(C)(C)c1cc([N+](=O)[O-])cc(C(C)(C)C)c1O
inactive: dose: 50.0 mg/kg/injection, schedule: Q01DX009 (ip), vehicle: saline with Tween-80 102 % of control | dose: 100.0 mg/kg/injection, schedule: Q01DX001 (ip), vehicle: saline 96 % of control | dose: 100.0 mg/kg/injection, schedule: Q01DX009 (ip), vehicle: saline with Tween-80 98 % of control | dose: 100.0 mg/kg/injection, schedule: Q04DX003 (ip), vehicle: saline 101 % of control | dose: 200.0 mg/kg/injection, schedule: Q01DX001 (ip), vehicle: saline 94 % of control | dose: 200.0 mg/kg/injection, schedule: Q04DX003 (ip), vehicle: saline 93 % of control | dose: 400.0 mg/kg/injection, schedule: Q01DX001 (ip), vehicle: saline 93 % of control

CCN1/C(=C/C=C/C=C/c2sc3ccccc3[n+]2CC)Sc2ccccc21
inactive: dose: 0.04 mg/kg/injection, schedule: Q01DX009 (ip), vehicle: saline 110 % of control | dose: 0.08 mg/kg/injection, schedule: Q01DX009 (ip), vehicle: saline 93 % of control | dose: 0.09 mg/kg/injection, schedule: Q01DX009 (ip), vehicle: saline 117 % of control | dose: 0.09 mg/kg/injection, schedule: Q04DX003 (ip), vehicle: saline 102 % of control | dose: 0.19 mg/kg/injection, schedule: Q01DX009 (ip), vehicle: saline 122 % of control | dose: 0.19 mg/kg/injection, schedule: Q04DX002 (ip), vehicle: saline 102 % of control | dose: 0.19 mg/kg/injection, schedule: Q04DX003 (ip), vehicle: saline 102 % of control | dose: 0.32 mg/kg/injection, schedule: Q01DX009 (ip), vehicle: saline 88 % of control | dose: 0.37 mg/kg/injection, schedule: Q01DX001 (ip), vehicle: saline 95 % of control | dose: 0.38 mg/kg/injection, schedule: Q01DX009 (ip), vehicle: saline 96 % of control | dose: 0.38 mg/kg/injection, schedule: Q04DX002 (ip), vehicle: saline 103 % of control | dose: 0.38 mg/kg/injection, schedule: Q04DX003 (ip), vehicle: saline 105 % of control | dose: 0.39 mg/kg/injection, schedule: Q01DX009 (ip), vehicle: saline 109 % of control | dose: 0.62 mg/kg/injection, schedule: Q01DX001 (ip), vehicle: other 105 % of control | dose: 0.75 mg/kg/injection, schedule: Q01DX001 (ip), vehicle: saline 102 % of control | dose: 0.76 mg/kg/injection, schedule: Q04DX002 (ip), vehicle: saline 107 % of control | dose: 0.76 mg/kg/injection, schedule: Q04DX003 (ip), vehicle: saline 103 % of control | dose: 0.8 mg/kg/injection, schedule: Q01DX001 (ip), vehicle: saline 105 % of control | dose: 1.25 mg/kg/injection, schedule: Q01DX001 (ip), vehicle: other 110 % of control | dose: 1.5 mg/kg/injection, schedule: Q01DX001 (ip), vehicle: saline 105 % of control | dose: 1.5 mg/kg/injection, schedule: Q04DX002 (ip), vehicle: saline 110 % of control | dose: 2.5 mg/kg/injection, schedule: Q01DX001 (ip), vehicle: other 115 % of control | dose: 3.0 mg/kg/injection, schedule: Q01DX001 (ip), vehicle: saline 110 % of control | dose: 5.0 mg/kg/injection, schedule: Q01DX001 (ip), vehicle: other 107 % of control

O=c1[nH]cnc2ccccc12
inactive: [1] 107 % of control | [3] 93 % of control | dose: 400.0 mg/kg/injection, schedule: Q01DX009 (ip), vehicle: Klucel (hydroxypropylcellulose) (HPC) 103 % of control

CN(CC(=O)NCCCCCCCCCCNC(=O)CN(C)C(=O)OCc1ccccc1)C(=O)OCc1ccccc1
inactive: dose: 10.0 mg/kg/injection, schedule: Q01DX Z (ip), vehicle: saline 94 % of control | dose: 30.0 mg/kg/injection, schedule: Q01DX Z (ip), vehicle: saline 88 % of control | dose: 100.0 mg/kg/injection, schedule: Q01DX Z (ip), vehicle: saline 91 % of control | dose: 300.0 mg/kg/injection, schedule: Q01DX Z (ip), vehicle: saline 88 % of control

O=C(Nc1ccc2c3c(cccc13)CC2)c1cccc([N+](=O)[O-])c1
inactive: dose: 100.0 mg/kg/injection, schedule: Q01DX001 (ip), vehicle: saline with Tween-80 102 % of control | dose: 200.0 mg/kg/injection, schedule: Q01DX001 (ip), vehicle: saline with Tween-80 94 % of control | dose: 400.0 mg/kg/injection, schedule: Q01DX001 (ip), vehicle: saline with Tween-80 96 % of control
